In PMC12655252, “Synthesis of 1H-Pyrrolo[3,2-g]isoquinoline Derivatives as Ligands Targeting Haspin Kinase” (Molecules, 2025):

Legend:
Haspin = details: Figure 2; cited from earlier work
Pim-1 = molecular target: T1, Pim-1 (Homo sapiens, UniProt P11309); assay: ADP-Glo in vitro kinase inhibition assay, Pim-1; format: biochemical; details: 10 μM ATP, read-out: PIM1 % residual activity; for remaining activity at 1 µM: 1 μM compound; for remaining activity at 10 µM: 10 μM compound
T1 construct: made in house; host or cells: bacteria
Method: (§1) We previouly reported that substitution at the 3-position with halogen atoms or pyridinyl or formyl groups was compatible with high potency toward Haspin kinase. To check if the current structural changes were in line with potent Haspin inhibition and high selectivity, enabling consideration of these compounds as possible targeting ligands for the PROTAC approach, compounds 2, 3, 8–11, and 15–17 were evaluated toward a panel of eight protein kinases, including Haspin, as well as other kinases known to be frequently cross-inhibited (CLK1, DYRK1A, CDK9/Cyclin T, GSK-3β, CK1ε, CDK5/p25, and Pim1) (Table 1). The percentage of residual kinase activity was evaluated at 10 μM and 1 μM compound concentrations. […].
(§2) Kinase inhibition was tested in 384-well plates using the ADP-GloTM assay kit (Promega, Madison, WI, USA) according to the procedure recommended by the manufacturer. Reactions were set up in a final volume of 6 μL in an appropriate kinase buffer (10 mM MgCl2, 1 mM EGTA, 1 mM DTT, 25 mM Tris-HCl pH 7.5, 50 μg/mL heparin) with either protein or peptide as the substrate in the presence of 10 μM ATP. To stop the kinase reaction, 6 μL of ADP-GloTM Kinase Reagent was added after 30 min at 30 °C. Then, after 50 min of incubation at room temperature (RT), 12 μL of Kinase Detection Reagent was added. The transmitted signal was measured after 1 h at RT using the Envision (Perkin Elmer, Waltham, MA, USA) microplate luminometer and expressed in relative light units (RLU). In order to determine the half-maximal inhibitory concentration (IC50), all assays were performed in duplicate in the absence or presence of increasing doses of the tested compounds. GraphPad Prism10 software (GraphPad Software, San Diego, CA, USA) was used to fit dose–response curves and to determine the IC50 values. Kinase activities are given as percentages of maximal activity, i.e., measured in the absence of inhibitor. Peptide substrates were obtained from Proteogenix (Schiltigheim, France).
(§3) The following protein kinases were analyzed in this study: CDK5/p25 (human, vector pGEX-2T, expressed in bacteria; kindly provided by Dr. J. H. Wang) was assayed with 0.8 μg/μL of histone H1 as substrate; HsCDK9/CyclinT (NP_001252/KAI4065659, cloned in pTEFb vector, expressed by baculovirus in Sf9 insect cells) were assayed with 0.27 μg/μL of the following peptide: […], as substrate; HsCK1ε (NP_001885, cloned in pFAST-BAC vector, expressed in Sf9 insect cells) was assayed with 0.022 μg/μL of the following peptide: […]pAYSITA (“Sp” stands for phosphorylated serine) as CK1-specific substrate; HsGSK3β (AAH12760, cloned in pFAST-BAC, expressed by baculovirus in Sf9 insect cells) were assayed with 0.010 μg/μL of GS-1 peptide, a GSK-3-selective substrate ([…]pEDEEE); HsHaspin-kd (NP_114171, kinase domain, amino acids 470–798 cloned in pGEX-6P-3, expressed in bacteria) was assayed with 0.007 μg/μL of histone H3 (1–21) peptide ([…]) as substrate; Pim-1 (KAI4018123, expressed in bacteria) was assayed with 0.8 μg/μL of histone H1 as substrate; HsCLK1 (NP_004062, cloned in pFAST-BAC, expressed in Sf9 insect cells) was assayed with 0.027 μg/μL of the peptide: […]; RnDYRK1A-kd (Rattus norvegicus, amino acids 1–499, pGEX-2TK, expressed in bacteria, gift from Dr. W. Becker, Aachen, Germany) was tested in the presence of 0.033 μg/μL of the peptide: […].

RnDYRK1A-kd = molecular target: T2, RnDYRK1A-kd (Rattus norvegicus, UniProt Q63470); assay: ADP-Glo in vitro kinase inhibition assay, DYRK1A; format: biochemical; details: 10 μM ATP, read-out: DYRK1A % residual activity; for remaining activity at 1 µM: 1 μM compound; for remaining activity at 10 µM: 10 μM compound
T2 construct: Rattus norvegicus, amino acids 1–499, pGEX-2TK; made in house; host or cells: bacteria
Method: as §1, §2, §3

HsCLK1 = molecular target: T3, HsCLK1 (Homo sapiens, UniProt P49759); assay: ADP-Glo in vitro kinase inhibition assay, CLK1; format: biochemical; details: 10 μM ATP, read-out: CLK1 % residual activity; for remaining activity at 1 µM: 1 μM compound; for remaining activity at 10 µM: 10 μM compound
T3 construct: made in house; host or cells: Sf9 insect cells
Method: as §1, §2, §3

CDK5/p25 = molecular target: T4, CDK5/p25 (Homo sapiens, UniProt Q00535); assay: ADP-Glo in vitro kinase inhibition assay, CDK5/p25; format: biochemical; details: 10 μM ATP, read-out: CDK5 % residual activity; for remaining activity at 1 µM: 1 μM compound; for remaining activity at 10 µM: 10 μM compound
T4 construct: made in house; host or cells: bacteria
Method: as §1, §2, §3

HsCK1ε = molecular target: T5, HsCK1ε (Homo sapiens, UniProt P49674); assay: ADP-Glo in vitro kinase inhibition assay, CK1ε; format: biochemical; details: 10 μM ATP, read-out: CK1 % residual activity; for remaining activity at 1 µM: 1 μM compound; for remaining activity at 10 µM: 10 μM compound
T5 construct: made in house; host or cells: Sf9 insect cells
Method: as §1, §2, §3

HsGSK3β = molecular target: T6, HsGSK3β (Homo sapiens, UniProt P49841); assay: ADP-Glo in vitro kinase inhibition assay, GSK3β; format: biochemical; details: 10 μM ATP, read-out: GSK3 % residual activity; for remaining activity at 1 µM: 1 μM compound; for remaining activity at 10 µM: 10 μM compound
T6 construct: made in house; host or cells: Sf9 insect cells (baculovirus)
Method: as §1, §2, §3

HsHaspin-kd = molecular target: T7, HsHaspin-kd (Homo sapiens, UniProt Q8TF76); assay: ADP-Glo in vitro kinase inhibition assay, Haspin; format: biochemical; details: 10 μM ATP, duplicate; for remaining activity at 1 µM: 1 μM compound; for remaining activity at 1 µM / remaining activity at 10 µM: read-out: Haspin % residual activity; for remaining activity at 10 µM: 10 μM compound
T7 construct: kinase domain, amino acids 470–798 cloned in pGEX-6P-3; made in house; host or cells: bacteria
T7 sequence (Q8TF76 470-798): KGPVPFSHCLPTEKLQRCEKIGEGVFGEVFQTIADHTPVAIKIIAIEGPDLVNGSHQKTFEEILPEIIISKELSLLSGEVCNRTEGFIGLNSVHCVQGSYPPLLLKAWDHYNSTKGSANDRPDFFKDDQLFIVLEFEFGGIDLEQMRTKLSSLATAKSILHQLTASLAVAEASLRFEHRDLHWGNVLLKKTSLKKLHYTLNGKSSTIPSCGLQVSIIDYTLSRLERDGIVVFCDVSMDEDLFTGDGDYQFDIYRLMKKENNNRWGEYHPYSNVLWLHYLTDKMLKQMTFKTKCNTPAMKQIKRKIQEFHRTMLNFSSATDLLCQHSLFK
Method: as §1, §2, §3

HsCDK9/CyclinT = molecular target: T8, HsCDK9/CyclinT (Homo sapiens, UniProt P50750); assay: ADP-Glo in vitro kinase inhibition assay, CDK9/CyclinT; format: biochemical; details: 10 μM ATP, read-out: CDK9 % residual activity; for remaining activity at 1 µM: 1 μM compound; for remaining activity at 10 µM: 10 μM compound
T8 construct: made in house; host or cells: Sf9 insect cells (baculovirus)
Method: as §1, §2, §3

T1 sequence (P11309 whole entry): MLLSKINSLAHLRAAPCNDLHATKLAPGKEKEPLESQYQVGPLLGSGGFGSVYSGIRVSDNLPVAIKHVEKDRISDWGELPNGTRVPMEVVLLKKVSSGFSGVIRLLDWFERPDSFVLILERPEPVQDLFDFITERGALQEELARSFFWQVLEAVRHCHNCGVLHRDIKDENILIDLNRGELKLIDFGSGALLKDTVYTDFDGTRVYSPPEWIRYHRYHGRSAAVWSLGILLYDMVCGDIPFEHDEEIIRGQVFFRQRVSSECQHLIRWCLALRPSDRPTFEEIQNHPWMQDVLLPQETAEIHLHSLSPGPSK
T8 sequence (P50750 whole entry): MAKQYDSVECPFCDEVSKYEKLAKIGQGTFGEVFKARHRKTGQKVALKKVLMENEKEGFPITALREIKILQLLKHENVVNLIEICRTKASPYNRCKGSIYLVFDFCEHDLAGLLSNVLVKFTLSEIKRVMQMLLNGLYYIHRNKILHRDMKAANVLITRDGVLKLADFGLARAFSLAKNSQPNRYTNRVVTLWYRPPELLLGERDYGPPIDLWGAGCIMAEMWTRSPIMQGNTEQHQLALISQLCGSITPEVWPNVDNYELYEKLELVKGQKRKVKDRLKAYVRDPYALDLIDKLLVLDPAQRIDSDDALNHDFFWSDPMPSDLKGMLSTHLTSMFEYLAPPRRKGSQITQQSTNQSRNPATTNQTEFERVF
T8 sequence (O60563 whole entry partner): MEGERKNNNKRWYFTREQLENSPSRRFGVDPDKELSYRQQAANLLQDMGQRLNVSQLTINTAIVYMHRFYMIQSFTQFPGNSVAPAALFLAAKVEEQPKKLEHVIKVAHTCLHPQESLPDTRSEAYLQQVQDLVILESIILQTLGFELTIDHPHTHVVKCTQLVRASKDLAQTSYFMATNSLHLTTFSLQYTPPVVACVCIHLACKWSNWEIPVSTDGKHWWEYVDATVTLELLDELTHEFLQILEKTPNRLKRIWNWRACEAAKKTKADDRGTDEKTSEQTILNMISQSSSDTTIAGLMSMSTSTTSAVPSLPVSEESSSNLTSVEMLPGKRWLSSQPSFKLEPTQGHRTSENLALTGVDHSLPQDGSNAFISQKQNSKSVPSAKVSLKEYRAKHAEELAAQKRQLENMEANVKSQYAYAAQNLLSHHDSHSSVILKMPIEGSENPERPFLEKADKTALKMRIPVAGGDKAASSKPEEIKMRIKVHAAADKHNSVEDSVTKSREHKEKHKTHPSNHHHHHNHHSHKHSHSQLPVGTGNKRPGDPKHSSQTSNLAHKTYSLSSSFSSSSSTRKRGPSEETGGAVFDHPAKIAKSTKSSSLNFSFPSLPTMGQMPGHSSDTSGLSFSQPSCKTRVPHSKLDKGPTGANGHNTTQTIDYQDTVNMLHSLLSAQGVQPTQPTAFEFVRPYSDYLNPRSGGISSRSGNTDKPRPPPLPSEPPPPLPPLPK
T3 sequence (P49759 whole entry): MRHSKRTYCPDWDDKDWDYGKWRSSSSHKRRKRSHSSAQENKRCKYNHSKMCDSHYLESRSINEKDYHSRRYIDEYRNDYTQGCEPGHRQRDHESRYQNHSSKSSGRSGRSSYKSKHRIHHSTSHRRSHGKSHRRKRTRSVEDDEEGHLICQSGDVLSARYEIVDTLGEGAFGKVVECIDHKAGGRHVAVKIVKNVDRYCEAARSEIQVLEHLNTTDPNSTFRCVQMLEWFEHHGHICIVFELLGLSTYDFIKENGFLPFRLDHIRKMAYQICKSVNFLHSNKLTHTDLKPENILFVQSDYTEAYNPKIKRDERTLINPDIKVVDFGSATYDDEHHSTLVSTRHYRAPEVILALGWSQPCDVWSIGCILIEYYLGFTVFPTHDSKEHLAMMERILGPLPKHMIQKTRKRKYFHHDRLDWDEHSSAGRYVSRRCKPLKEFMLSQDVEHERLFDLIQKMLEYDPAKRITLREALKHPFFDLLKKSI
T6 sequence (P49841 whole entry): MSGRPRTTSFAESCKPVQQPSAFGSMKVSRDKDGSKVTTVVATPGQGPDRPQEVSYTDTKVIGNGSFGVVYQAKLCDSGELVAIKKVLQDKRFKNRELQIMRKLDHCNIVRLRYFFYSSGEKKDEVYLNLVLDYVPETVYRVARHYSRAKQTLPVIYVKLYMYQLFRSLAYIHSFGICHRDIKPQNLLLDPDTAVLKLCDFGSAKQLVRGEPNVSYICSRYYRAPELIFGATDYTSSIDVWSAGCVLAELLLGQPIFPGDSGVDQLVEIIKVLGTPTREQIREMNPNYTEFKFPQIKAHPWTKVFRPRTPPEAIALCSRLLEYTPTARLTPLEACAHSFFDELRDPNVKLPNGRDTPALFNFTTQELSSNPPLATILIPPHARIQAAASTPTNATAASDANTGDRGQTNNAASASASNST
T5 sequence (P49674 whole entry): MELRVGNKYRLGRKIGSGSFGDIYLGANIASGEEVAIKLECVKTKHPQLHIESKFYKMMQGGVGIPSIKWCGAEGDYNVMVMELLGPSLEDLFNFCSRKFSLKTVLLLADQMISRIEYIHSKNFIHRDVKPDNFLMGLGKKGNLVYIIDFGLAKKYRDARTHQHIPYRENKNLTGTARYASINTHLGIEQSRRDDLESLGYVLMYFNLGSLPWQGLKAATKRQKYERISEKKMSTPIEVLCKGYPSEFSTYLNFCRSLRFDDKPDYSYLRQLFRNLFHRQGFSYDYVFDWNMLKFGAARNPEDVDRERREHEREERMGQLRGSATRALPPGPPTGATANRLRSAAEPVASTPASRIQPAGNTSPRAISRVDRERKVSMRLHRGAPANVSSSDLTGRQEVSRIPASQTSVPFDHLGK
T4 sequence (Q00535 whole entry): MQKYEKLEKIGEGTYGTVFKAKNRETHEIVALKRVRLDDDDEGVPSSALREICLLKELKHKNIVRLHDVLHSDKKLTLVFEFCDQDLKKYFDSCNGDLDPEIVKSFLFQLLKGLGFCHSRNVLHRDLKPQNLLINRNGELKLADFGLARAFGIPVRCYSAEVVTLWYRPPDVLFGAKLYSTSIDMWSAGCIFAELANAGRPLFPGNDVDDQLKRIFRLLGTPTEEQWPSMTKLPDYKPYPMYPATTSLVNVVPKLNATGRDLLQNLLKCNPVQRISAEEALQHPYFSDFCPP
T4 sequence (Q15078 99-307 partner limits assumed): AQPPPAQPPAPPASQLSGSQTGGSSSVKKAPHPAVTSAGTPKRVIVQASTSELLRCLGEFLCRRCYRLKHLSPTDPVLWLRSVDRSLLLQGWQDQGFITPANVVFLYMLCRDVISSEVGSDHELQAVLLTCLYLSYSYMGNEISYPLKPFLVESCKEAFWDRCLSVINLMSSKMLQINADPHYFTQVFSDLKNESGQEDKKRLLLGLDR

remaining activity at 1 µM (Pim-1)	remaining activity at 10 µM (Pim-1)	remaining activity at 1 µM (RnDYRK1A-kd)	remaining activity at 10 µM (RnDYRK1A-kd)	remaining activity at 1 µM (HsCLK1)	remaining activity at 10 µM (HsCLK1)	remaining activity at 1 µM (CDK5/p25)	remaining activity at 10 µM (CDK5/p25)	remaining activity at 1 µM (HsCK1ε)	remaining activity at 10 µM (HsCK1ε)	remaining activity at 1 µM (HsGSK3β)	remaining activity at 10 µM (HsGSK3β)	remaining activity at 1 µM (HsHaspin-kd)	IC50 (HsHaspin-kd)	remaining activity at 10 µM (HsHaspin-kd)	remaining activity at 1 µM (HsCDK9/CyclinT)	remaining activity at 10 µM (HsCDK9/CyclinT)	Compound	IC50 (Haspin)	Ki (Haspin)
–	–	–	–	–	–	–	–	–	–	–	–	–	–	–	–	–	harmol	770 nM	–
72%	52%	72%	32%	91%	60%	100%	100%	100%	97%	100%	99%	45%	82.1 nM	10%	90%	72%	COC(=O)CCc1c[nH]c2cc3cnccc3cc12 [Compound 10, Methyl 3-(1H-Pyrrolo[3,2-g]isoquinolin-3-yl)propanoate]	–	–
–	–	–	–	–	–	–	–	–	–	–	–	–	–	–	–	–	C#Cc1cn([C@@H]2S[C@H](CN=[N+]=[N-])[C@@H](O)[C@H]2O)c2ncnc(N)c12 [LJ-4827]	–	0.465 nM
–	–	–	–	–	–	–	–	–	–	–	–	–	–	–	–	–	Cc1ccc(NC(=O)c2ccc3c(c2)c(CNCCN2CCNCC2)cn3C)cc1C [Compound A]	0.01 nM	–
20%	14%	20%	16%	56%	27%	100%	100%	79%	54%	76%	81%	9%	10.1 nM	8%	81%	56%	Clc1cc(-c2c[nH]c3cc4cnccc4cc23)ccn1 [Compound 2, 3-(2-Chloro-pyridin-4-yl)-1H-pyrrolo[3,2-g]isoquinoline]	–	–
–	–	–	–	–	–	–	–	–	–	–	–	–	–	–	–	–	COc1ccc2nc3ccc(Cl)cc3c(SCCCN)c2c1 [LDN-209929]	55 nM	–
–	–	–	–	–	–	–	–	–	–	–	–	–	–	–	–	–	COc1ccc2c(c1)[nH]c1c(C)nccc12 [Harmine, harmine]	590 nM	–
70%	60%	58%	31%	98%	81%	100%	100%	98%	81%	83%	94%	70%	–	52%	100%	86%	CC(C)(C)OC(=O)CCc1c[nH]c2cc3cnccc3cc12 [Compound 11, tert-Butyl 3-(1H-Pyrrolo[3,2-g]isoquinolin-3-yl)propanoate]	–	–
42%	21%	51%	28%	86%	48%	100%	100%	92%	87%	80%	80%	30%	392 nM	12%	79%	32%	CC(C)(C)OC(=O)/C=C/c1c[nH]c2cc3cnccc3cc12 [Compound 9, tert-Butyl (E)-3-(1H-Pyrrolo[3,2-g]isoquinolin-3-yl)prop-2-enoate]	–	–
